Laboratory results as given in patent publication US8999982B2, “Pharmaceutically active compounds as Axl inhibitors” (Lead Discovery Center GmbH, priority 2010, dated 2015).

What was measured:
Axl [1] = target: T1, Axl (Homo sapiens (Human), UniProt P30530); assay: Axl binding assay
Experimental: Binding of the tracer to the kinase is detected using an EU-labeled anti-tag antibody. […] Binding of an inhibitor to the kinase competes for binding with the tracer, resulting in a loss of FRET-signal. At first a compound according to formula (I) was diluted in 20 mM Hepes pH 8.0, 1 mM DTT, 10 mM MgCl2 and 0.01% Brij35.

Axl [2] = target: T1, Axl; assay: Cellular Axl phosphorylation assay; format: cell-based; settings: HEK293 cells transfected with Axl cDNA, 1 hour incubation
Experimental: 3. Cellular Axl Phosphorylation Assay:
HEK293 embryonal kidney fibroblasts were transfected in 96 wells with a plasmid containing Axl cDNA. As transfection reagent Superfect (Qiagen) was used. Transfection of the sole vector backbone served as negative control of Axl expression. After overnight incubation the cellular supernatant was replaced with fresh medium. On the following day the Axl-expressing cells were incubated for 1 hour with a compound according to formula (I) at the suitable concentrations. […] The mesoscale technology was used for quantification.

T1 sequence (P30530 26-894): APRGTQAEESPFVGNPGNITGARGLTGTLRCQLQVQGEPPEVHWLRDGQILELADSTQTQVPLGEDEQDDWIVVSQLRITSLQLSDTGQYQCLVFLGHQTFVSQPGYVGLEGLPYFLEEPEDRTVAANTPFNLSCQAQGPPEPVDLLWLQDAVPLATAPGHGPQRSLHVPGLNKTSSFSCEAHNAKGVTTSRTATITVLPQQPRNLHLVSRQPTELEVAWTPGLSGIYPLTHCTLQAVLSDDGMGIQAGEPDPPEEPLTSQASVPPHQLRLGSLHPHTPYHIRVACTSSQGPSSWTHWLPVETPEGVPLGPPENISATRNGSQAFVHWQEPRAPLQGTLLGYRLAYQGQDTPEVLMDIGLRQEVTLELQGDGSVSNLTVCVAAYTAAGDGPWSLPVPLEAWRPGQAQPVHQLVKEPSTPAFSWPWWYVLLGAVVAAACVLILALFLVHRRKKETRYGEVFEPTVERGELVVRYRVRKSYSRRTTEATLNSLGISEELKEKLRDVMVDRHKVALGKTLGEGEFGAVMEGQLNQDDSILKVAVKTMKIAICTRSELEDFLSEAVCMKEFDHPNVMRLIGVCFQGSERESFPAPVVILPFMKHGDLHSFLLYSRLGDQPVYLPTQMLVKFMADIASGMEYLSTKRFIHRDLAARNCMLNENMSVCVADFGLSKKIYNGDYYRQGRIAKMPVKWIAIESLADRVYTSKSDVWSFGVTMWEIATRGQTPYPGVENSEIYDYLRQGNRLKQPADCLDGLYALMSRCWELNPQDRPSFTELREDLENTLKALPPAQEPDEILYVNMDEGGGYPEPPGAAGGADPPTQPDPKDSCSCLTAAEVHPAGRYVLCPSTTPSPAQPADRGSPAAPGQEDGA

## COc1cc2c(Oc3ccc(NC(=O)c4nn(C)cc4Br)cc3F)ccnc2cc1OCCCN1CCOCC1 [Example 39, 4-bromo-N-[3-fluoro-4-[[6-methoxy-7-(3-morpholinopropoxy)-4-quinolyl]oxy]phenyl]-1-methyl-pyrazole-3-carboxamide]
Axl [1]
  IC50: 0.5 to 5 µM
Axl [2]
  IC50: < 0.5 µM

## COc1cc2c(Oc3ccc(NC(=O)c4ccn(C)n4)cc3F)ccnc2cc1OCCCN1CCOCC1 [Example 40, N-[3-fluoro-4-[[6-methoxy-7-(3-morpholinopropoxy)-4-quinolyl]oxy]phenyl]-1-methyl-pyrazole-3-carboxamide]
Axl [1]
  IC50: 0.5 to 5 µM
Axl [2]
  IC50: < 0.5 µM

## COc1cc2c(Oc3ccc(NC(=O)c4cc(C)n(C(C)(C)C)n4)cc3F)ccnc2cc1OCCCN1CCOCC1 [Example 41, 1-tert-butyl-N-[3-fluoro-4-[[6-methoxy-7-(3-morpholinopropoxy)-4-quinolyl]oxy]phenyl]-5-methyl-pyrazole-3-carboxamide]
Axl [1]
  IC50: < 0.5 µM
Axl [2]
  IC50: < 0.5 µM

## COc1cc2c(Oc3ccc(NC(=O)c4cc(C)n(C)n4)cc3F)ccnc2cc1OCCCN1CCOCC1 [Example 42, N-[3-fluoro-4-[[6-methoxy-7-(3-morpholinopropoxy)-4-quinolyl]oxy]phenyl]-1,5-dimethyl-pyrazole-3-carboxamide]
Axl [1]
  IC50: < 0.5 µM
Axl [2]
  IC50: < 0.5 µM

## CCOc1cn(-c2ccc(F)cc2C)nc1C(=O)Nc1ccc(Oc2ccnc3cc(OCCCN4CCOCC4)c(OC)cc23)c(F)c1 [Example 43, 4-ethoxy-N-[3-fluoro-4-[[6-methoxy-7-(3-morpholinopropoxy)-4-quinolyl]oxy]phenyl]-1-(4-fluoro-2-methyl-phenyl)pyrazole-3-carboxamide]
Axl [1]
  IC50: < 0.5 µM
Axl [2]
  IC50: < 0.5 µM

## COc1cc2c(Oc3ccc(NC(=O)c4nn(-c5ccc(F)cc5)cc4OC)cc3F)ccnc2cc1OCCCN1CCOCC1 [Example 44, N-[3-fluoro-4-[[6-methoxy-7-(3-morpholinopropoxy)-4-quinolyl]oxy]phenyl]-1-(4-fluorophenyl)-4-methoxy-pyrazole-3-carboxamide]
Axl [1]
  IC50: < 0.5 µM
Axl [2]
  IC50: < 0.5 µM

## COc1cc2c(Oc3ccc(NC(=O)c4nn(-c5ccc(F)cc5)cc4OC(C)C)cc3F)ccnc2cc1OCCCN1CCOCC1 [Example 45, N-[3-fluoro-4-[[6-methoxy-7-(3-morpholinopropoxy)-4-quinolyl]oxy]phenyl]-1-(4-fluorophenyl)-4-isopropoxy-pyrazole-3-carboxamide]
Axl [1]
  IC50: < 0.5 µM
Axl [2]
  IC50: < 0.5 µM

## COc1cc2c(Oc3ccc(NC(=O)c4nn(-c5ccc(F)cc5)cc4OCC4CC4)cc3F)ccnc2cc1OCCCN1CCOCC1 [Example 46, 4-(cyclopropylmethoxy)-N-[3-fluoro-4-[[6-methoxy-7-(3-morpholinopropoxy)-4-quinolyl]oxy]phenyl]-1-(4-fluorophenyl)pyrazole-3-carboxamide]
Axl [1]
  IC50: < 0.5 µM
Axl [2]
  IC50: < 0.5 µM

## CCOc1cn(-c2ccc(F)cc2Cl)nc1C(=O)Nc1ccc(Oc2ccnc3cc(OCCCN4CCOCC4)c(OC)cc23)c(F)c1 [Example 47, 1-(2-chloro-4-fluoro-phenyl)-4-ethoxy-N-[3-fluoro-4-[[6-methoxy-7-(3-morpholinopropoxy)-4-quinolyl]oxy]phenyl]pyrazole-3-carboxamide]
Axl [1]
  IC50: < 0.5 µM
Axl [2]
  IC50: < 0.5 µM

## COc1cc2c(Oc3ccc(NC(=O)c4nn(-c5ccc(F)cc5)cc4OCCN(C)C)cc3F)ccnc2cc1OCCCN1CCOCC1 [Example 48, 4-(2-dimethylaminoethoxy)-N-[3-fluoro-4-[[6-methoxy-7-(3-morpholinopropoxy)-4-quinolyl]oxy]phenyl]-1-(4-fluorophenyl)pyrazole-3-carboxamide]
Axl [1]
  IC50: < 0.5 µM
Axl [2]
  IC50: < 0.5 µM

## CCOc1cn(-c2ccc(F)cc2Br)nc1C(=O)Nc1ccc(Oc2ccnc3cc(OCCCN4CCOCC4)c(OC)cc23)c(F)c1 [Example 49, 1-(2-bromo-4-fluoro-phenyl)-4-ethoxy-N-[3-fluoro-4-[[6-methoxy-7-(3-morpholinopropoxy)-4-quinolyl]oxy]phenyl]pyrazole-3-carboxamide]
Axl [1]
  IC50: < 0.5 µM
Axl [2]
  IC50: < 0.5 µM

## COCCOc1cn(-c2ccc(F)cc2)nc1C(=O)Nc1ccc(Oc2ccnc3cc(OCCCN4CCOCC4)c(OC)cc23)c(F)c1 [Example 50, N-[3-fluoro-4-[[6-methoxy-7-(3-morpholinopropoxy)-4-quinolyl]oxy]phenyl]-1-(4-fluorophenyl)-4-(2-methoxyethoxy)pyrazole-3-carboxamide]
Axl [1]
  IC50: < 0.5 µM
Axl [2]
  IC50: < 0.5 µM

## COc1cc2c(Oc3ccc(NC(=O)c4nn(-c5ccc(F)cc5)cc4OCc4ccccc4)cc3F)ccnc2cc1OCCCN1CCOCC1 [Example 51, 4-benzyloxy-N-[3-fluoro-4-[[6-methoxy-7-(3-morpholinopropoxy)-4-quinolyl]oxy]phenyl]-1-(4-fluorophenyl)pyrazole-3-carboxamide]
Axl [1]
  IC50: < 0.5 µM
Axl [2]
  IC50: < 0.5 µM

## COc1cc2c(Oc3ccc(NC(=O)c4nn(-c5ccc(F)cc5)cc4[N+](=O)[O-])cc3F)ccnc2cc1OCCCN1CCOCC1 [Example 52, N-[3-fluoro-4-[[6-methoxy-7-(3-morpholinopropoxy)-4-quinolyl]oxy]phenyl]-1-(4-fluorophenyl)-4-nitro-pyrazole-3-carboxamide]
Axl [1]
  IC50: < 0.5 µM
Axl [2]
  IC50: < 0.5 µM

## COc1cc2c(Oc3ccc(NC(=O)c4nn(-c5ccc(F)cc5)cc4N)cc3F)ccnc2cc1OCCCN1CCOCC1 [Example 53, 4-amino-N-[3-fluoro-4-[[6-methoxy-7-(3-morpholinopropoxy)-4-quinolyl]oxy]phenyl]-1-(4-fluorophenyl)pyrazole-3-carboxamide]
Axl [1]
  IC50: < 0.5 µM
Axl [2]
  IC50: < 0.5 µM

## CCOc1cn(-c2ccc(F)cc2)nc1C(=O)Nc1ccc(Oc2ccnc3cc(OCCCN)c(OC)cc23)c(F)c1 [Example 54, N-[4-[[7-(3-aminopropoxy)-6-methoxy-4-quinolyl]oxy]-3-fluoro-phenyl]-4-ethoxy-1-(4-fluorophenyl)pyrazole-3-carboxamide]
Axl [1]
  IC50: < 0.5 µM
Axl [2]
  IC50: < 0.5 µM

## CCOc1cn(-c2ccc(F)cc2C)nc1C(=O)Nc1ccc(Oc2ccnc3cc(OCCCN)c(OC)cc23)c(F)c1 [Example 55, N-[4-[[7-(3-aminopropoxy)-6-methoxy-4-quinolyl]oxy]-3-fluoro-phenyl]-4-ethoxy-1-(4-fluoro-2-methyl-phenyl)pyrazole-3-carboxamide]
Axl [1]
  IC50: < 0.5 µM
Axl [2]
  IC50: < 0.5 µM

## CCOc1oc(-c2ccc(F)cc2)nc1C(=O)Nc1ccc(Oc2ccnc3cc(OCCCN)c(OC)cc23)c(F)c1 [Example 56, N-[4-[[7-(3-aminopropoxy)-6-methoxy-4-quinolyl]oxy]-3-fluoro-phenyl]-5-ethoxy-2-(4-fluorophenyl)oxazole-4-carboxamide]
Axl [1]
  IC50: < 0.5 µM
Axl [2]
  IC50: < 0.5 µM

## CCOc1cn(-c2ccc(F)cc2C)nc1C(=O)Nc1ccc(Oc2ccnc3cc(OCCCN4CCN(C)CC4)c(OC)cc23)c(F)c1 [Example 57, 4-ethoxy-N-[3-fluoro-4-[[6-methoxy-7-[3-(4-methylpiperazin-1-yl)propoxy]-4-quinolyl]oxy]phenyl]-1-(4-fluoro-2-methyl-phenyl)pyrazole-3-carboxamide]
Axl [1]
  IC50: < 0.5 µM
Axl [2]
  IC50: < 0.5 µM

## CCOc1cn(-c2ccc(F)cc2)nc1C(=O)Nc1ccc(Oc2ccnc3cc(OCCCN4CCN(C)CC4)c(OC)cc23)c(F)c1 [Example 58, 4-ethoxy-N-[3-fluoro-4-[[6-methoxy-7-[3-(4-methylpiperazin-1-yl)propoxy]-4-quinolyl]oxy]phenyl]-1-(4-fluorophenyl)pyrazole-3-carboxamide]
Axl [1]
  IC50: < 0.5 µM
Axl [2]
  IC50: < 0.5 µM

## COc1cc2c(Oc3ccc(NC(=O)c4nn(-c5ccc(F)cc5)cc4OC)cc3F)ccnc2cc1OCCCN1CCN(C)CC1 [Example 59, N-[3-fluoro-4-[[6-methoxy-7-[3-(4-methylpiperazin-1-yl)propoxy]-4-quinolyl]oxy]phenyl]-1-(4-fluorophenyl)-4-methoxy-pyrazole-3-carboxamide]
Axl [1]
  IC50: < 0.5 µM
Axl [2]
  IC50: < 0.5 µM

## CCOc1cn(-c2ccc(F)cc2Cl)nc1C(=O)Nc1ccc(Oc2ccnc3cc(OCCCN4CCN(C)CC4)c(OC)cc23)c(F)c1 [Example 60, 1-(2-chloro-4-fluoro-phenyl)-4-ethoxy-N-[3-fluoro-4-[[6-methoxy-7-[3-(4-methylpiperazin-1-yl)propoxy]-4-quinolyl]oxy]phenyl]pyrazole-3-carboxamide]
Axl [1]
  IC50: < 0.5 µM
Axl [2]
  IC50: < 0.5 µM

## COc1cc2c(Oc3ccc(NC(=O)c4nn(-c5ccc(F)cc5)cc4OCC4CC4)cc3F)ccnc2cc1OCCCN1CCN(C)CC1 [Example 61, 4-(cyclopropylmethoxy)-N-[3-fluoro-4-[[6-methoxy-7-[3-(4-methylpiperazin-1-yl)propoxy]-4-quinolyl]oxy]phenyl]-1-(4-fluorophenyl)pyrazole-3-carboxamide]
Axl [1]
  IC50: < 0.5 µM
Axl [2]
  IC50: < 0.5 µM

## COc1cc2c(Oc3ccc(NC(=O)c4nn(-c5ccc(F)cc5)cc4OC(C)C)cc3F)ccnc2cc1OCCCN1CCN(C)CC1 [Example 62, N-[3-fluoro-4-[[6-methoxy-7-[3-(4-methylpiperazin-1-yl)propoxy]-4-quinolyl]oxy]phenyl]-1-(4-fluorophenyl)-4-isopropoxy-pyrazole-3-carboxamide]
Axl [1]
  IC50: < 0.5 µM
Axl [2]
  IC50: < 0.5 µM

## CCOc1oc(-c2ccc(F)cc2)nc1C(=O)Nc1ccc(Oc2ccnc3cc(OCCCN4CCN(C)CC4)c(OC)cc23)c(F)c1 [Example 63, 5-ethoxy-N-[3-fluoro-4-[[6-methoxy-7-[3-(4-methylpiperazin-1-yl)propoxy]-4-quinolyl]oxy]phenyl]-2-(4-fluorophenyl)oxazole-4-carboxamide]
Axl [1]
  IC50: < 0.5 µM
Axl [2]
  IC50: < 0.5 µM
